What was measured:
[1] = test system: plasmacytoind dendritic cells (PDCs) of human PBMCs; assay: Intracellular staining and FACS analysis of IFN-α production from PDCs; assay type: cell-based; settings: double-staining cells as percentage of total PBMCs, 20 μg/mL oligonucleotide, 100 μg/mL PMXB, six hours
Experimental: Intracellular staining assays and FACS analysis were used to examine IFN-α production from the plasmacytoind dendritic cells (PDCs) of human PBMCs. […] For these assays, the IMC or -ISS and the polymyxin were added separately to the PBMC cell culture which contained human serum albumin. […] After the six hours, the cells were stained with a fluorescently labeled PDC marker, anti-BCDA-2 labeled with FITC, and with anti-IFN-α labeled with PE. FACS analysis of the labeled cells was performed.

[2] = test system: human peripheral blood lymphocytes (PBMCs); assay: hPBMC assay: IFN-γ and IFN-α production by human PBMCs (ELISA); assay type: cell-based; settings: for immunomodulatory activity in the hPBMC assay: result in words; for IFN-γ/α-enhancing activity in comparison to PMXB or CLN: in words, Table 10 experiment
[3] = dodecyl spacer measured as dialcohol precursor; cited from earlier work
[4] = hydrophobic/lipophilic balance value; cited from earlier work
[5] = Donor 198, no Time given, 20 μg/ml oligonucleotide
[6] = Donor 199, no Time given, 20 μg/ml oligonucleotide
[7] = Donor 28212, Controls, 20 μg/ml oligonucleotide, 100 μg/ml polymyxin
[8] = Donor 28213, Controls, 20 μg/ml oligonucleotide, 100 μg/ml polymyxin
[9] = Donor # 9, 20 μg/ml oligonucleotide, 100 μg/ml PMXB, 24 hours
[10] = Donor # 20, 20 μg/ml oligonucleotide, 100 μg/ml PMXB, 24 hours
[11] = Donor # 37, 20 μg/ml oligonucleotide, 100 μg/ml PMXB, 24 hours
[12] = Donor # 75, 20 μg/ml oligonucleotide, 100 μg/ml PMXB, 24 hours
[13] = Donor # 86, 20 μg/ml oligonucleotide, 100 μg/ml PMXB, 24 hours
[14] = Donor # 87, 20 μg/ml oligonucleotide, 100 μg/ml PMXB, 24 hours
[15] = Donor # 88, 20 μg/ml oligonucleotide, 100 μg/ml PMXB, 24 hours
[16] = Donor # 89, 20 μg/ml oligonucleotide, 100 μg/ml PMXB, 24 hours
[17] = Donor # 90, 20 μg/ml oligonucleotide, 100 μg/ml PMXB, 24 hours
[18] = Donor # 91, 20 μg/ml oligonucleotide, 100 μg/ml PMXB, 24 hours
[19] = Donor # 94, 20 μg/ml oligonucleotide, 100 μg/ml PMXB, 24 hours
[20] = Donor # 95, 20 μg/ml oligonucleotide, 100 μg/ml PMXB, 24 hours
[21] = Donor # 96, 20 μg/ml oligonucleotide, 100 μg/ml PMXB, 24 hours
[22] = Donor # 97, 20 μg/ml oligonucleotide, 100 μg/ml PMXB, 24 hours
[23] = Mean (Table 4), Controls, 20 μg/ml oligonucleotide, 100 μg/ml polymyxin
[24] = Mean (Table 5), no Time given, 20 μg/ml oligonucleotide
[25] = Mean of donors (Table 2), 20 μg/ml oligonucleotide, 100 μg/ml PMXB, 24 hours
[26] = Table 3, Donor 1, PMXB 100 μg/ml, AMTB 10 μg/ml, serum containing medium
[27] = Table 3, Donor 2, PMXB 100 μg/ml, AMTB 10 μg/ml, serum containing medium
[28] = Table 3, Mean, PMXB 100 μg/ml, AMTB 10 μg/ml, serum containing medium
[29] = Table 10, donor 1, 20 μg/ml oligonucleotide, 100 μg/ml polymyxin derivative added separately, 24 hours
[30] = Table 10, donor 2, 20 μg/ml oligonucleotide, 100 μg/ml polymyxin derivative added separately, 24 hours
[31] = Table 10, donor 3, 20 μg/ml oligonucleotide, 100 μg/ml polymyxin derivative added separately, 24 hours
[32] = Table 10, donor 4, 20 μg/ml oligonucleotide, 100 μg/ml polymyxin derivative added separately, 24 hours
[33] = Table 10, donor 5, 20 μg/ml oligonucleotide, 100 μg/ml polymyxin derivative added separately, 24 hours
[34] = Table 10, donor 6, 20 μg/ml oligonucleotide, 100 μg/ml polymyxin derivative added separately, 24 hours
[35] = Table 10, mean of 6 donors, 20 μg/ml oligonucleotide, 100 μg/ml polymyxin derivative added separately, 24 hours
[36] = Donor 28232, no Time given, 20 μg/ml oligonucleotide, 100 μg/ml polymyxin
[37] = Donor 28233, no Time given, 20 μg/ml oligonucleotide, 100 μg/ml polymyxin
[38] = Mean (Table 6), no Time given, 20 μg/ml oligonucleotide, 100 μg/ml polymyxin
[39] = Table 9, Mean, 20 μg/ml oligonucleotide, 100 μg/ml polymyxin
[40] = Table 9, donor 149, 20 μg/ml oligonucleotide, 100 μg/ml polymyxin
[41] = Table 9, donor 208, 20 μg/ml oligonucleotide, 100 μg/ml polymyxin

5′-TCGTCGAACGTTCGAGATGAT-3′ [SEQ ID NO: 39]
BCDA-2/IFN-α d.p. % ([1]; donor 1): 0.08% | BCDA-2/IFN-α d.p. % ([1]; donor 2): 0.14% | BCDA-2/IFN-α d.p. % ([1]; mean): 0.11%

5′-TGACTGTGAACCTTAGAGATGA-3′ (DNA, all phosphorothioate, methylation of C not given here) [−ISS]
IFN-α [2, 5]: 151 pg/mL | IFN-γ [2, 5]: 5 pg/mL | IFN-α [2, 6]: 279 pg/mL | IFN-γ [2, 6]: 18 pg/mL | IFN-α [2, 7]: 225 pg/mL | IFN-γ [2, 7]: 5 pg/mL | IFN-α [2, 8]: 156 pg/mL | IFN-γ [2, 8]: 7 pg/mL | IFN-α [2, 9]: 0 pg/mL | IFN-γ [2, 9]: 0 pg/mL | IFN-γ [2, 10]: 4 pg/mL | IFN-α [2, 11]: 0 pg/mL | IFN-γ [2, 11]: 5 pg/mL | IFN-γ [2, 12]: 1 pg/mL | IFN-α [2, 13]: 15 pg/mL | IFN-γ [2, 13]: 12 pg/mL | IFN-α [2, 14]: 0 pg/mL | IFN-γ [2, 14]: 12 pg/mL | IFN-α [2, 15]: 19 pg/mL | IFN-γ [2, 15]: 70 pg/mL | IFN-α [2, 16]: 17 pg/mL | IFN-γ [2, 16]: 7 pg/mL | IFN-α [2, 17]: 0 pg/mL | IFN-γ [2, 17]: 0 pg/mL | IFN-α [2, 18]: 0 pg/mL | IFN-γ [2, 18]: 30 pg/mL | IFN-α [2, 19]: 0 pg/mL | IFN-γ [2, 19]: 0 pg/mL | IFN-α [2, 20]: 0 pg/mL | IFN-γ [2, 20]: 4 pg/mL | IFN-γ [2, 21]: 9 pg/mL | IFN-γ [2, 22]: 5 pg/mL | IFN-α [2, 23]: 191 pg/mL | IFN-γ [2, 23]: 6 pg/mL | IFN-α [2, 24]: 215 pg/mL | IFN-γ [2, 24]: 12 pg/mL | IFN-α [2, 25]: 5 pg/mL | IFN-γ [2, 25]: 11 pg/mL | IFN-α [2, 26]: 3 pg/mL | IFN-γ [2, 26]: 1 pg/mL | IFN-α [2, 27]: 0 pg/mL | IFN-γ [2, 27]: 0 pg/mL | IFN-α [2, 28]: 1 pg/mL | IFN-γ [2, 28]: 0 pg/mL | IFN-α [2, 29]: 52 pg/mL | IFN-γ [2, 29]: 2 pg/mL | IFN-α [2, 30]: 52 pg/mL | IFN-γ [2, 30]: 2 pg/mL | IFN-α [2, 31]: 52 pg/mL | IFN-γ [2, 31]: 2 pg/mL | IFN-α [2, 32]: 52 pg/mL | IFN-γ [2, 32]: 2 pg/mL | IFN-α [2, 33]: 26 pg/mL | IFN-γ [2, 33]: 10 pg/mL | IFN-α [2, 34]: 26 pg/mL | IFN-γ [2, 34]: 2 pg/mL | IFN-α [2, 35]: 43 pg/mL | IFN-γ [2, 35]: 3 pg/mL

5′-TGCTTGCAAGCTTGCAAGCA-3′ (listed as DNA, chemistry not given here) [−ISS SEQ ID NO: 38, reference compound]
BCDA-2/IFN-α d.p. % ([1]; donor 1): 0.00% | BCDA-2/IFN-α d.p. % ([1]; donor 2): 0.00% | BCDA-2/IFN-α d.p. % ([1]; mean): 0.00%

OCCCCCCCCCCCCO [1,12-dihydroxydodecane]
solubility [3]: < 5000 µg/mL

C[C@@H]1[C@H](O)[C@@H](C)/C=C/C=C/C=C/C=C/C=C/C=C/C=C/[C@H](O[C@@H]2O[C@H](C)[C@@H](O)[C@H](N)[C@@H]2O)C[C@@H]2O[C@](O)(C[C@@H](O)C[C@@H](O)[C@H](O)CC[C@@H](O)C[C@@H](O)CC(=O)O[C@H]1C)C[C@H](O)[C@H]2C(=O)O [AMTB, amphotericin B]
IFN-α [2, 26]: 0 pg/mL | IFN-γ [2, 26]: 0 pg/mL | IFN-α [2, 27]: 0 pg/mL | IFN-γ [2, 27]: 0 pg/mL | IFN-α [2, 28]: 0 pg/mL | IFN-γ [2, 28]: 0 pg/mL | immunomodulatory activity in the hPBMC assay [2]: no activity on its own

Polymyxin B [PMXB]
IFN-α [2, 7]: 268 pg/mL | IFN-γ [2, 7]: 5 pg/mL | IFN-α [2, 8]: 213 pg/mL | IFN-γ [2, 8]: 4 pg/mL | IFN-Υ [2, 36]: 8 pg/mL | IFN-α [2, 36]: 16 pg/mL | IFN-Υ [2, 37]: 7 pg/mL | IFN-α [2, 37]: 84 pg/mL | IFN-γ [2, 10]: 20 pg/mL | IFN-α [2, 11]: 0 pg/mL | IFN-γ [2, 11]: 228 pg/mL | IFN-γ [2, 12]: 6 pg/mL | IFN-α [2, 13]: 353 pg/mL | IFN-γ [2, 13]: 23 pg/mL | IFN-α [2, 14]: 326 pg/mL | IFN-γ [2, 14]: 33 pg/mL | IFN-α [2, 15]: 33 pg/mL | IFN-γ [2, 15]: 112 pg/mL | IFN-α [2, 16]: 9 pg/mL | IFN-γ [2, 16]: 3 pg/mL | IFN-α [2, 17]: 0 pg/mL | IFN-γ [2, 17]: 0 pg/mL | IFN-α [2, 18]: 0 pg/mL | IFN-γ [2, 18]: 47 pg/mL | IFN-α [2, 20]: 0 pg/mL | IFN-γ [2, 20]: 17 pg/mL | IFN-γ [2, 21]: 55 pg/mL | IFN-γ [2, 22]: 21 pg/mL | IFN-α [2, 23]: 241 pg/mL | IFN-γ [2, 23]: 5 pg/mL | IFN-Υ [2, 38]: 7 pg/mL | IFN-α [2, 38]: 50 pg/mL | IFN-α [2, 25]: 90 pg/mL | IFN-γ [2, 25]: 47 pg/mL | IFN-α [2, 26]: 1 pg/mL | IFN-γ [2, 26]: 23 pg/mL | IFN-α [2, 27]: 0 pg/mL | IFN-γ [2, 27]: 6 pg/mL | IFN-α [2, 28]: 0 pg/mL | IFN-γ [2, 28]: 15 pg/mL | IFN-Υ [2, 39]: 127 pg/mL | IFN-α [2, 39]: 32 pg/mL | IFN-Υ [2, 40]: 195 pg/mL | IFN-α [2, 40]: 32 pg/mL | IFN-Υ ([2]; Table 9, donor 206, 20 μg/ml oligonucleotide, 100 μg/ml polymyxin): 14 pg/mL | IFN-Υ [2, 41]: 171 pg/mL | IFN-α [2, 41]: 32 pg/mL | IFN-α ([2]; Table 9, donor 209, 20 μg/ml oligonucleotide, 100 μg/ml polymyxin): 32 pg/mL | immunomodulatory activity in the hPBMC assay [2]: no immunomodulatory activity on its own

colistin methanesulfonate [CMS]
IFN-γ/α-enhancing activity in comparison to PMXB or CLN [2]: substantially reduced

polyethylene glycol sorbitan monooleate
HLB [4]: 15.4

polymyxin B nonapeptide [PMXB-9]
IFN-γ/α-enhancing activity in comparison to PMXB or CLN [2]: substantially reduced

polyoxyethylene(20) sorbitan trioleate [Tween 85]
IFN-Υ [2, 36]: 15 pg/mL | IFN-α [2, 36]: 66 pg/mL | IFN-Υ [2, 37]: 6 pg/mL | IFN-α [2, 37]: 55 pg/mL | IFN-Υ [2, 38]: 11 pg/mL | IFN-α [2, 38]: 60 pg/mL | HLB [4]: 11

Reference: US7884083B2, “Immunomodulatory compositions, methods of making, and methods of use thereof” (Dynavax Technologies Corporation, priority 2002, dated 2011)
